Reference: EP0181129B1, “N6-substituted deoxyribose analogs of adenosines” (WARNER-LAMBERT COMPANY, priority 1984, dated 1986)

The compounds below were run against T1, adenosine A1 receptor (Rattus norvegicus, UniProt P25099) (assay: Adenosine Receptor Binding - A1 Receptor Affinity (RBA1), [3H]-CHA displacement). Conditions: 1.0 nM [3H]-CHA, rat whole brain membranes, one hour at 25°C; read-out: Receptor Binding RBA—1.
T1 construct: brain minus cerebellum and brainstem from male Long Evans rats (150-200 g) was homogenized; from tissue; host or cells: rat whole brain minus cerebellum and brainstem, membrane homogenate
T1 sequence (P25099 1-326): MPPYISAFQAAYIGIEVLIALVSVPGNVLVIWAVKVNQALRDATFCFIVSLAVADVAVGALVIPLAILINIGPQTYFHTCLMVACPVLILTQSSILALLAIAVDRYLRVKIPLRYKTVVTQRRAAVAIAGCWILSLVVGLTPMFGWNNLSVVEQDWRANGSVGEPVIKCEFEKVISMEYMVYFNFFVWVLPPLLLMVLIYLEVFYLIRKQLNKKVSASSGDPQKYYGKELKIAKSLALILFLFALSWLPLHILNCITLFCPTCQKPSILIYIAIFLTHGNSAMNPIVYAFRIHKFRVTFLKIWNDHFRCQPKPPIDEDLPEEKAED
Procedure: While brain minus cerebellum and brainstem from male Long Evans rats (150-200 g) was homogenized in 30 volumes of ice-cold 0.05 M Tris-CHI buffer pH 7.7 using a Brinkman Polytron PT-10, (setting number 6 for 20 seconds) and centrifuged for ten minutes at 20,000 x g (Sorvall RC-2), 4°C. The supernatant was discarded, and the pellet was resuspended and centrifuged as before. The pellet was resuspended in 20 ml Tris-HCI buffer containing two International Units/ml of adenosine deaminase (Sigma type III from calf intestinal mucosa), incubated at 37°C for 30 minutes, then subsequently at 0°C for ten minutes. The homogenate was again centrifuged, and the final pellet was resuspended in ice-cold 0.05 M Tris-HCI buffer pH 7.7 to a concentration of 20 mg/ml original wet tissue weight and used immediately.
Tissue homogenate (10 mg/ml) was incubated in 0.05 M Tris-HCI buffer pH 7.7 containing 1.0 nM (^3H]-N^e-cyclohexyladenosine ([^3H]-CHA) with or without tests agents in triplicate for one hour at 25°C. Incubation volume was 2 ml. Unbound [^3H]-CHA was separated by rapid filtration under reduced pressure through Whatman glass fiber (GF/B) filters. The filters were rinsed three times with 5 ml of ice cold 0.05 M Tris-HCI buffer pH 7.7. The radio-labeled ligand retained on the filter was measured by liquid scintillation spectrophotometry after shaking the filters for one hour or longer on a mechanical shaker in 10 ml of Beckman Ready-Solv HP scintillation cocktail.
Nonspecific binding was defined as the binding which occurred in the presence of 1 mM theophylline. […] The Scatchard plot was calculated by linear regression of the line obtained by plotting the amount of radioligand bound (pmoles/gram of tissue) [formula] Since the amount of radioligand bound was a small fraction of the total amount added, free radioligand was defined as the concentration (nM) of radioligand added to the incubation mixture. The Hill coefficient was calculated by linear regression of the line obtained by plotting the log of the bound radioligand vs the log of the [formula] The maximal number of binding sites (Bmax) was calculated from the Scatchard plot.

Row | Compound | IC50
1 | C[C@H]1O[C@@H](n2cnc3c(NCC(c4ccccc4)c4ccccc4)ncnc32)[C@H](O)[C@@H]1O [Example 1, N^s-[2,2-Diphenylethyl]-5'-deoxyadenosine] | 227 nM
2 | C[C@H]1O[C@@H](n2cnc3c(NC4CCc5ccccc54)ncnc32)[C@H](O)[C@@H]1O (stereo partly drawn) [Example 2, N^6-[1-Indanyl]-5'-deoxyadenosine] | 1680 nM
3 | C[C@H](Cc1ccccc1)Nc1ncnc2c1ncn2[C@@H]1O[C@H](C)[C@@H](O)[C@H]1O [Example 3] | 40 nM
4 | C[C@@H](Cc1ccccc1)Nc1ncnc2c1ncn2[C@@H]1O[C@H](C)[C@@H](O)[C@H]1O [Example 4, (S)-N^6-[Phenylisopropyl]-5'-deoxyadenosine] | 556 nM
5 | C[C@H]1O[C@@H](n2cnc3c(NC4CCCC4)ncnc32)[C@H](O)[C@@H]1O [Example 5, N^6-[Cyclopentyl]-5'-deoxyadenosine] | 16 nM
6 | C[C@H]1O[C@@H](n2cnc3c(NC4CCCCC4)ncnc32)[C@H](O)[C@@H]1O [Example 6, N^6-[Cyclohexyl]-5'-deoxyadenosine] | 52 nM
7 | CSC[C@H]1O[C@@H](n2cnc3c(NC4CCCC4)ncnc32)[C@H](O)[C@@H]1O [Example 10, N^6-[Cyclopentyl]-5'-deoxy-5'-thiomethyladenosine] | 13 nM
8 | O[C@@H]1[C@H](O)[C@@H](CCl)O[C@H]1n1cnc2c(NCC(c3ccccc3)c3ccccc3)ncnc21 [Example 13, N^6-[2,2-Diphenylethyl]-5'-deoxy-5'-chloroadenosine] | 53 nM
9 | O[C@@H]1[C@H](O)[C@@H](CCl)O[C@H]1n1cnc2c(NC3CCc4ccccc43)ncnc21 (stereo partly drawn) [Example 14, N^6-[1-Indanyl]-5'-deoxy-5'-chloroadenosine] | 218 nM
10 | C[C@H](Cc1ccccc1)Nc1ncnc2c1ncn2[C@@H]1O[C@H](CCl)[C@@H](O)[C@H]1O [Example 15, (R)-N^6-[Phenylisopropyl]-5'-deoxy-5'-chloro-adenosine] | 3 nM

These compounds were tested against T2, adenosine A2 receptor (Rattus norvegicus, UniProt P30543) (assay: Adenosine Receptor Binding - A2 Receptor Affinity (RBA2), [3H]NECA displacement). Conditions: 4 nM [3H]NECA with 50 nM N6-cyclopentyladenosine, rat striatal membranes, 60 minutes at 25°C; read-out: Receptor Binding RBA—2.
T2 construct: Brains were thawed and then kept on ice while the striata were dissected out; tissue Pel-Freez (Rogers, Arkansas); host or cells: rat striatum, membranes
Procedure: Brains from 200-500 g mixed sex Sprague-Dawley rats were purchased from Pel-Freez (Rogers, Arkansas). Fresh brains from male Long-Evans hooded rats (Blue Spruce Farms, Altamont, NY) gave essentially indentical results. Brains were thawed and then kept on ice while the striata were dissected out. Striata were disrupted in 10 vol of ice-cold 50 mM Tris.HCI (pH 7.7 at 25°C, pH 8.26 at 5°C) (Tris) for 30 seconds in a Polytron PT―10 (Brinkmann) at setting 5. The suspension was centrifuged at 50,000 xg for ten minutes, the supernatant discarded, the pellet resuspended in 10 vol ice-cold Tris as above, recentrifuged, resuspended at 1 g/5 ml, and stored in plastic vials at -70°C (stable for at least six months). When needed, tissue was thawed at room temperature, disrupted in a Polytron, and kept on ice until used.
All incubations were for 60 minutes at 25°C in 12x75 mm glass tubes containing 1 ml Tris with 5 mg original tissue weight of rat weight of rat striatal membranes, 4 nM [^3H]-N-ethyl adenosine-5'-carboxamide ([^3H]NECA), 50 nM N^6-cyclopentyladenosine (to eliminate A1 receptor binding), 10 mM MgCl2, 0.1 units/ml, of adenosine deaminase and 1% dimethylsulfoxide. N^6-Cyclopentyladenosine was dissolved at 10 mM in 0.02 N HCI and diluted in Tris. Stock solutions and dilutions of N^6-cyclopentyladenosine could be stored at -20°C for several months. Test compounds were dissolved at 10 mM in dimethylsulfoxide or the same day as the experiment, and diluted in dimethylsulfoxide to 100x the final incubation concentration. Control incubations received an equal volume (10 µl) of dimethylsulfoxide; the resulting concentration of dimethylsulfoxide had no effect on binding. [^3H]NECA was diluted to 40 nM in Tris. The membrane suspension (5 mg/0.79 ml) contained sufficient MgCl2 and adenosine deaminase to give 10 mM and 0.1 units/ml, respectively, final concentration in the incubation. […] After all additions, the rack of tubes was vortexed, and the tubes were then incubated for 60 min at 25°C in a shaking water bath. The rack of tubes was vortexed an additonal time halfway through the incubation.
Incubations were terminated by filtration through 2.4 cm GF/B filters under reduced pressure. Each tube was filtered as follows: the contents of the tube were poured onto the filter, 4 ml of ice-cold Tris were added to the tube and the contents poured onto the filter, and the filter was washed twice with 4 ml of ice-cold Tris. The filtration was complete in about twelve seconds. Filters were put in scintillation vials, 8 ml of Formula 947 scintillation fluid added, and the vials left overnight, shaken, and counted in a liquid scintillation counter at 40% efficiency.
Nonspecific binding was defined as binding in the presence of […] N^6-cyclopentyladenosine, and specific binding was defined as total binding minus nonspecific binding. The IC50 was calculated by weighted nonlinear least squares curve-fitting to the mass-action equation. [formula] • where Y is cpm bound T is cpm total binding without drug S is cpm specific binding without drug D is the concentration of drug • and K is the IC50 of the drug Weighting factors were calculated under the assumption that the standard deviation was proportional to the predicted value of Y. Nonspecific binding was treated as a very large (infinite) concentration of drug in the computer analysis.

T2 sequence (P30543 whole entry): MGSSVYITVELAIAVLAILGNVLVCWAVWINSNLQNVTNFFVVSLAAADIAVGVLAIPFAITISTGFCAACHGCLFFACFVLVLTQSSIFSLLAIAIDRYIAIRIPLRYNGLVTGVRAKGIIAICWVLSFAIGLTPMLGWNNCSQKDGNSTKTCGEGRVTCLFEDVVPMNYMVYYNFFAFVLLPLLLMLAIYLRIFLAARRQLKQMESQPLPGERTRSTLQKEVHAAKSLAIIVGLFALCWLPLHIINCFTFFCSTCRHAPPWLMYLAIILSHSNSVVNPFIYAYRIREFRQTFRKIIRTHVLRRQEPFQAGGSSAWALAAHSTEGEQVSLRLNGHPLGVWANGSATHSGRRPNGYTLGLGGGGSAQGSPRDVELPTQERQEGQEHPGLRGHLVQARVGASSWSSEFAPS

Row | Compound | IC50
11 | C[C@H]1O[C@@H](n2cnc3c(NCC(c4ccccc4)c4ccccc4)ncnc32)[C@H](O)[C@@H]1O [Example 1, N^s-[2,2-Diphenylethyl]-5'-deoxyadenosine] | 1110 nM
12 | C[C@H]1O[C@@H](n2cnc3c(NC4CCc5ccccc54)ncnc32)[C@H](O)[C@@H]1O (stereo partly drawn) [Example 2, N^6-[1-Indanyl]-5'-deoxyadenosine] | 21200 nM
13 | C[C@H](Cc1ccccc1)Nc1ncnc2c1ncn2[C@@H]1O[C@H](C)[C@@H](O)[C@H]1O [Example 3] | 5700 nM
14 | C[C@@H](Cc1ccccc1)Nc1ncnc2c1ncn2[C@@H]1O[C@H](C)[C@@H](O)[C@H]1O [Example 4, (S)-N^6-[Phenylisopropyl]-5'-deoxyadenosine] | 20000 nM
15 | C[C@H]1O[C@@H](n2cnc3c(NC4CCCC4)ncnc32)[C@H](O)[C@@H]1O [Example 5, N^6-[Cyclopentyl]-5'-deoxyadenosine] | 17200 nM
16 | C[C@H]1O[C@@H](n2cnc3c(NC4CCCCC4)ncnc32)[C@H](O)[C@@H]1O [Example 6, N^6-[Cyclohexyl]-5'-deoxyadenosine] | 21400 nM
17 | CSC[C@H]1O[C@@H](n2cnc3c(NC4CCCC4)ncnc32)[C@H](O)[C@@H]1O [Example 10, N^6-[Cyclopentyl]-5'-deoxy-5'-thiomethyladenosine] | 7200 nM
18 | O[C@@H]1[C@H](O)[C@@H](CCl)O[C@H]1n1cnc2c(NCC(c3ccccc3)c3ccccc3)ncnc21 [Example 13, N^6-[2,2-Diphenylethyl]-5'-deoxy-5'-chloroadenosine] | 240 nM
19 | O[C@@H]1[C@H](O)[C@@H](CCl)O[C@H]1n1cnc2c(NC3CCc4ccccc43)ncnc21 (stereo partly drawn) [Example 14, N^6-[1-Indanyl]-5'-deoxy-5'-chloroadenosine] | 8650 nM
20 | C[C@H](Cc1ccccc1)Nc1ncnc2c1ncn2[C@@H]1O[C@H](CCl)[C@@H](O)[C@H]1O [Example 15, (R)-N^6-[Phenylisopropyl]-5'-deoxy-5'-chloro-adenosine] | 1600 nM

These compounds were tested on Long-Evans rats or squirrel-monkeys (assay: Conditioned avoidance of electric footshock by lever pushing (SIDR)). Conditions: Rattus norvegicus; species of the result not stated (rats or squirrel-monkeys); read-out: ED50 for blockade of avoidance.
Type: in vivo
Procedure: A representative compound of the invention (identified in the Example 5) was also tested for antipsychotic activity according to the following protocol (SIDR). The noted compound has the indicated EDso values (mg/kg) and is considered active as an antipsychotic agent in the test procedure.
Mature male Long-Evans rats or squirrel-monkeys are conditioned to push a lever in order to avoid a painful electric footshock. If the animal fails to push the lever, he receives a shock every ten seconds until the lever is pushed. Shocks can be terminated by pushing the lever. Thereafter, as long as the lever is pushed at least once every 20 seconds, there will be no shock.
Each animal acts as its own control; one weekly session is used to establish baseline behavior and another session later in the week is used as a drug session. Once patterns of avoidance are established, the effects of standard and unknown compounds are studied.

Row | Compound | ED50
21 | C[C@H]1O[C@@H](n2cnc3c(NC4CCCC4)ncnc32)[C@H](O)[C@@H]1O [Example 5, N^6-[Cyclopentyl]-5'-deoxyadenosine] | 2.8 mg/kg

Same assay, conditions: at 4 mg/kg

Row | Compound | response for blockade of escape
22 | C[C@H]1O[C@@H](n2cnc3c(NC4CCCC4)ncnc32)[C@H](O)[C@@H]1O [Example 5, N^6-[Cyclopentyl]-5'-deoxyadenosine] | 10%

These compounds were tested on male Swiss-Webster mice (assay: Antiwrithing (AW) test, acetic acid induced writhing). Conditions: Mus musculus, ip; administered intraperitoneally to mice; read-out: ED50 (dose necessary to suppress writhing by 50% relative to vehicle controls).
Type: in vivo

Row | Compound | ED50
23 | C[C@H]1O[C@@H](n2cnc3c(NC4CCCC4)ncnc32)[C@H](O)[C@@H]1O [Example 5, N^6-[Cyclopentyl]-5'-deoxyadenosine] | 0.9 mg/kg
24 | C[C@H](Cc1ccccc1)Nc1ncnc2c1ncn2[C@@H]1O[C@H](CCl)[C@@H](O)[C@H]1O [Example 15, (R)-N^6-[Phenylisopropyl]-5'-deoxy-5'-chloro-adenosine] | 1.8 mg/kg
